# Experimental data published in patent US12140600B2, “Method for measuring activated partial thromboplastin time” (SYSMEX CORPORATION, priority 2019, dated 2024).
# Test: Effect of suppressing precipitation of ellagic acid-metal ion complex (salting out, dynamic light scattering and visual check)
# Format: physicochemical
# Details: for degree of increase in particle size of complex with respect to the increase in salt concentration / precipitation, visually confirmed: additive 100 μM; for degree of increase in particle size of complex with respect to the increase in salt concentration: sodium chloride 10, 50 or 100 mM, FIG. 3; for precipitation, visually confirmed: sodium chloride concentration 100 mM; for precipitation suppressing effect versus additive concentration: additive at various concentrations, FIGS. 4A and 4B
# Protocol: In an APTT reagent comprising a metal ion complex of ellagic acid as an activator, when the salt concentration increases, the complex particle size increases by the salting-out effect, and finally precipitation occurs. By utilizing the principle of salting out, the effect of suppressing the precipitation of various additives in ellagic acid-metal ion complex solutions was confirmed.
# An ellagic acid-metal ion complex solution was prepared to contain 50 mM HEPES, 8 mM TAPS, and 1% by mass glycine as buffer components, 100 μM ellagic acid, 60 μM zinc chloride, and 50 μM aluminum chloride as a metal ion complex of ellagic acid, and 0.05% ProClin (trademark) 300 (Sigma-Aldrich Co., LLC.) as a preservative. A complex solution comprising each additive at a concentration of 100 μM was obtained by mixing this solution with any one selected from gallic acid, pyrogallol, hydroquinone, 5-methylpyrogallol, resorcinol, or cyclohexanetriol as an additive. As a control, an ellagic acid-metal ion complex solution not comprising an additive was used.
# Each complex solution prepared in (1) above was mixed with a 5 M sodium chloride solution to obtain a mixed solution (test group) having a sodium chloride concentration of 10 mM, 50 mM, or 100 mM. The relationship between the salt concentration in each mixed solution and the average particle size of complex was confirmed by a dynamic scattered light method using Zetasizer Nano (Malvern Panalytical Ltd.). The results are illustrated in FIG. 3.
# The effect of suppressing precipitation was confirmed in the same manner as in (2) above using the complex solutions containing gallic acid or pyrogallol at various concentrations. The results are illustrated in FIGS. 4A and 4B.
SMILES,degree of increase in particle size of complex with respect to the increase in salt concentration,"precipitation, visually confirmed",precipitation suppressing effect versus additive concentration
O=C(O)c1cc(O)c(O)c(O)c1 [gallic acid],small,precipitation has not been visually confirmed,precipitation suppressing effect is observed at all concentrations
Oc1cccc(O)c1O [pyrogallol],small,precipitation has not been visually confirmed,precipitation suppressing effect is observed at all concentrations
